Patent US11845807B2, “Method and carrier complexes for delivering molecules to cells” (priority 2003, dated 2023)
Square brackets hold non-standard residues; d marks the D form. Peptide text beside a SMILES is read from it. * marks the point of attachment. Dansyl = CN(C)c1cccc2c(S(=O)(=O)*)cccc12; Dmt = Cc1cc(O)cc(C)c1C[C@H](N)C(=O)O; 2Abz = Nc1ccccc1C(=O)O; Dap = NC[C@H](N)C(=O)O; Sar = CNCC(=O)O

Experiments:
[1] = tested on: Caco-2 cells; assay: Uptake of peptide-β-Gal conjugates into cells (β-gal staining); type: cell-based; details: 1 h at 37° C.
From the text: Conjugation of protein to [Dmt1]DALDA. was cross-linked to β-galactosidase (recombinant E. coli, Sigma-Aldrich) using a cross-linker SMCC (succinimidyl 4-(N-maleimidomethyl)yclohexane-1-carboxylate)(Pierce). […] Its maleimide end can then be conjugated to a sulfhydryl-containing compound to create a thioether linkage (Bioconjugate Techniques by Greg T. Hermanson, Academic Press, page 234-237). β-Gal contains abundant free sulfhydryl groups in its native state. The uptake of β-Gal provides a convenient read-out with the use of X-gal. […] This should result in “activated peptide.” The “activated peptide” was diluted 1:10 with phosphate buffer. 1 mg of β-Gal was added to 1 ml of the 1:10 “activated peptide” and mixed at 4° C. for either 2 h or overnight.
Assay for [Dmt1]DALDA-protein conjugate uptake into cells. […] Cells were then washed 4 times with PBS. The cells were then stained with β-gal staining set (Roche) for at least 2 h at 37° C. and examined under the microscope.
This should result in “activated peptide.” The “activated peptide” was diluted 1:10 with phosphate buffer. 1 mg of β-Gal was added to 1 ml of the 1:10 “activated peptide” and mixed at 4° C. for either 2 h or overnight.
Cells were then washed 4 times with phosphate buffer. The cells were then stained with β-gal staining set (Roche) for at least 2 h at 37° C. and examined under the microscope.

[2] = tested on: Caco-2 cells; assay: Confocal laser scanning microscopy of fluorescent peptide uptake, Caco-2 cells; type: cell-based; details: 0.1 μM, 15 min at 37° C.
Method: (§1) Confocal Laser Scanning Microscopy. The uptake of aromatic-cationic peptides into cells was confirmed by confocal laser scanning microscopy (CLSM) using two fluorescent peptides, [Dmt^1,dnsDap^4]DALDA (Dmt-D-Arg-Phe-dnsDap-NH2, where dnsDap is β-dansyl-1-α-β-diamino-propionic acid) and [Dmt^1.atnDap^4]DALDA (Dmt-D-Arg-Phe-atnDap-NH2, where atn is β-anthraniloyl-L-α-β-diaminopropionic acid). Caco-2 cells or SH-SYSY cells were grown as described above and were plated on (35-mm) glass bottom dishes (MatTek, Ashland, Mass.) for 2 days. The medium was then removed, and cells were incubated with 1 ml of HBSS containing 0.1 μM of the fluorescent peptide at either 4° C. or 37° C. for 15 min. Cells were then washed three times with ice-cold HESS and covered with 200 μl of PBS, and microscopy was performed within 10 min at room temperature using a confocal laser scanning microscope with a C-Apochromat 63×/1.2 W torr objective (Nikon, Tokyo, Japan). Excitation/emission wavelengths were set at 340/520 nm for [Dmt^1,dnsDap^4]DALDA and 320/420 nm for [Dmt^1,atnDap^4]-DALDA, respectively. For optical sectioning in z-direction, 5 to 10 frames with […] were made.

[3] = tested on: Huh7 cells; assay: Cell viability by trypan blue uptake; type: cell-based; details: 50 μl of 1 mM conjugate in 1 ml medium, 24 hours at 37° C.
Method: Trypan blue is only taken by cells with increased membrane permeability. Huh7 cells (1×10^6) were washed three times in DMEM, and 1 ml of fresh medium, or media containing 50 μl of 1 mM [Dmt^1]DALDA-SMCC conjugate, [D-Arg-Dmt-Lys-Phe-NH2]-SMCC conjugate, or [Phe^1]DALDA-SMCC conjugate, and incubated at 37° C. for 24 hours at 5% CO2. Cells were then washed three times with DMEM, and 1 ml of 0.4% trypan blue was added to the cells for 2 minutes. Excessive dye was removed by washing cells in cell medium and the cells were examined by light microscopy.

[4] = tested on: Caco-2 cells; assay: Assay for peptide uptake in Caco-2 cells; type: cell-based
From the text: Assay for Peptide Uptake.

[5] = tested on: Caco-2 cells; assay: Assay for peptide efflux from Caco-2 cells; type: cell-based
Method: Assay for Peptide Efflux from CaCo-2 Cells. […] Cells were then washed four times with 1 ml of ice-cold incubation solution to terminate uptake and then incubated with 0.5 ml of MEM for 1 h at either 37 or 4° C. to measure the efflux of peptide from cells to the incubation medium. The amount of radioactivity was determined in cell lysates and in the incubation medium.

[6] = Peptide translocation across Caco-2 monolayers (Transwell, apical-to-basolateral); type: in vitro ADME; details: Caco-2; apical-to-basolateral; read-out: apparent permeability coefficient
Method: (§2) Assay for Peptide Translocation across Caco-2 Monolayers. Monolayers of Caco-2 cells were prepared as described previously (Irie et al., J. Pharmacol. Exp. Ther. 2001, 298: 711-717), Caco-2 cells (2×10^5) were seeded on microporous membrane filters (24 mm, […]) inside Transwell cell culture chambers (Corning Glassworks, Corning, N.Y.). Each Transwell chamber was filled with 1.5 ml of medium in the apical compartment and 2.5 ml in the basolateral compartment. The cell monolayers were given fresh medium every 1 to 2 days and were used on day 28 for transport experiments.
(§3) The apparent permeability coefficient was calculated according to the following equation: Papp=X/(t·A·Co), where X/t is the rate of uptake in the receiver compartment, A is the diffusion area (4.72 cm^2), and Co is the initial concentration in the donor compartment.

[7] = tested on: Caco-2 monolayer; assay: as above; type: in vitro ADME; details: 60 min
Method: as §2, §3

[8] = tested on: Caco-2 cells; details: Terada et al. 1999; confirmed in this study (FIG. 2B); cited from earlier work
[9] = tested on: SH-SY5Y cells; assay: Confocal laser scanning microscopy of fluorescent peptide uptake, SH-SY5Y cells; type: cell-based; details: 0.1 μM, 30 min at 4° C.
Method: as §1, with “The medium was then removed, and cells were incubated with 1 ml of HBSS containing 0.1 μM of the fluorescent peptide at either 4° C. or 37° C. for 15 min.” left out

β-Gal with SMCC: β-Gal conjugated with SMCC alone, without peptide (control) [reference compound]
uptake of β-Gal into cells (blue cells) [1]: did not enhance uptake

Cc1cc(O)cc(C)c1C[C@H](N)C(=O)N[C@H](CCCNC(=N)N)C(=O)N[C@@H](Cc1ccccc1)C(=O)N[C@@H](CNS(=O)(=O)c1cccc2c(N(C)C)cccc12)C(N)=O [[Dmt^1,dnsDap^4]DALDA, Dmt-D-Arg-Phe-dnsDap-NH2] (H-[Dmt][dR]F[Dap](Dansyl)-NH2; N-terminus assumed)
intracellular distribution of fluorescence [2]: diffuse throughout the cytoplasm with no apparent vesicular distribution | nuclear localisation of fluorescence [2]: completely excluded from the nucleus | intracellular distribution of fluorescence ([2]; dnsDap^4]DALDA): diffuse throughout the cytoplasm

CCOC(=O)OC(=O)OCC [DEPC, diethylpyrocarbonate, reference compound]
trypan blue uptake (cell viability) [3]: significant uptake of trypan blue

β-Gal: β-galactosidase (recombinant E. coli, Sigma-Aldrich), protein cargo
uptake of β-Gal into cells (blue cells) [1]: no uptake

N=C(N)NCCC[C@@H](NC(=O)[C@@H](N)Cc1ccccc1)C(=O)N[C@@H](Cc1ccccc1)C(=O)N[C@@H](CCCCN)C(N)=O [[Phe^1]DALDA, Phe-D-Arg-Phe-Lys-NH2] (H-F[dR]FK-NH2; N-terminus assumed)
trypan blue uptake (cell viability) [3]: No increase in trypan blue uptake

CN(CC(=O)O)C(=O)CN [Gly-Sar, reference compound] (H-Gly-[Sar]-OH)
effect of DEPC on uptake ([4]; 0.2 mM DEPC): significantly inhibited | effect of 4° C. on uptake ([4]; 4° C. versus 37° C.): completely abolished | time course of uptake ([4]; 37° C., 50 μM): continued to increase from 5 to 45 min | effect of temperature (4° C.) on efflux ([5]; 4° C. versus 37° C.): significantly reduced | peptide effluxed into medium ([5]; preloaded 1 h, 1 h efflux at 37° C.): 39% | Papp A→B [6]: 12.6 ×10⁻⁶ cm/s | percentage translocated from the apical to the basolateral side [7]: 11.9% | pH of optimal uptake (by PEPT1) [8]: 6.0

Cc1cc(O)cc(C)c1C[C@H](N)C(=O)N[C@H](CCCNC(=N)N)C(=O)N[C@@H](Cc1ccccc1)C(=O)N[C@@H](CNC(=O)c1ccccc1N)C(N)=O [[Dmt^1,atnDap^4]DALDA, Dmt-D-Arg-Phe-atnDap-NH2] (H-[Dmt][dR]F[Dap](2Abz)-NH2; N-terminus assumed)
internalization at 4° C. [9]: energy-independent non-endocytotic uptake mechanism
